Assay results taken from paper PMC6469224, “Tuning the properties of tris(hydroxypyridinone) ligands: efficient ^68Ga chelators for PET imaging” (Dalton Transactions (Cambridge, England : 2003), 2019).
Like-named read-outs stand apart in the source and are kept apart here. Blank lines part the entries; values can stand above or below the compound they belong to.

Tests used:
[1] = Spectrophotometric titration, acid dissociation constants; format: physicochemical
Description: (§1) The THP^Me and THP^H acid dissociation and conditional formation constants for their Ga^3+ and Fe^3+ complexes were investigated by spectrophotometric measurements. pKa and pM values (defined as –log[M^3+] when [ligand]total = 10 μM, [metal]total = 1 μM and pH = 7.4) are reported in Table 2. A full list of the measured conditional formation constants is provided in the ESI (Tables S1–S3 ^†), together with speciation plots calculated for the pH range of the titration. The pKa values for THP chelators are better described as intrinsic protonation constants since they represent the average pKa values of the three hydroxypyridinone units, which could not be distinguished by UV spectrophotometric measurements.[45] The first intrinsic pKa is attributed to the carbonyl group of the HP unit, and the second to the adjacent hydroxyl group. For THP^H a third intrinsic protonation constant, pKa3, associated with deprotonation of the N^1–H group in the pyridinone ring, exists outside the pH range used. The value of pKa3 was estimated to be 13 from the spectral change of the [Fe(THP^H)] complex in the pH 10–12.5 range. The measured protonation constants for THP^H are lower than those measured for deferiprone, but slightly higher than those for THP^Me (that is, THP^Me is slightly more acidic than THP^H).
The automated titration system consists of a Metrohm 765 Dosimat autoburette, a Mettler Toledo MP230 pH meter with SENTEK pH electrode (P11), and an HP 8453 UV-visible spectrophotometer with a Hellem quartz flow cuvette, with circulation driven by a Gilson Mini-plus #3 pump (speed capability 20 mL min^–1). A potassium chloride electrolyte solution (0.1 M) was used to maintain the ionic strength. The temperature of the test solutions was maintained in a thermostatic jacketed titration vessel at 25 ± 0.1 °C, using a Fisherbrand Isotemp water bath. The pH electrodes were calibrated using the software GLEE[47] with data obtained by titrating a volumetric standard HCl (0.1 M) in KCl (0.1 M) with KOH (0.1 M) under an atmosphere of argon. Analytical grade reagent materials were used in the preparation of all solutions. The solution under investigation was stirred vigorously during the experiment. For pKa determinations, a cuvette path length of 10 mm was used, while for metal stability constants determinations, a cuvette path length of 50 mm was used (experimental concentration was ca. 40 μM for iron complexes and ca. 10 μM for gallium complexes). All instruments were interfaced to a computer and controlled by an in-house program.
The automated titration adopted the following strategy: the pH of a solution was increased in increments of 0.1 pH unit by the addition of potassium hydroxide solution (0.1 M) from the autoburette. The pH readings were judged stable if they varied by less than 0.01 pH unit after a pre-set incubation period. […] The cycle was repeated until the predefined end point pH value was achieved. Titration data were analysed with the HypSpec2014 program[48],[49] […] The fitting spectra range for iron complexes was 400–700 nm while that for gallium complexes was 250–350 nm. pH values higher than 11.3 (outside the pH range in which electrode measurements are considered accurate) were neglected and re-calculated from the added KOH quantity (using “no pH” mode within the HypSpec2014 program). […] Metal affinities of compounds in this study were determined in competition with the metal hydrolysis species in a solution at a high pH (titrated up to pH 12.5). […]

[2] = Spectrophotometric determination of conditional formation constants, Ga^3+ complexes; format: binding
Description: as §1
(§2) The automated titration system consists of a Metrohm 765 Dosimat autoburette, a Mettler Toledo MP230 pH meter with SENTEK pH electrode (P11), and an HP 8453 UV-visible spectrophotometer with a Hellem quartz flow cuvette, with circulation driven by a Gilson Mini-plus #3 pump (speed capability 20 mL min^–1). A potassium chloride electrolyte solution (0.1 M) was used to maintain the ionic strength. The temperature of the test solutions was maintained in a thermostatic jacketed titration vessel at 25 ± 0.1 °C, using a Fisherbrand Isotemp water bath. […]
(§3) The automated titration adopted the following strategy: the pH of a solution was increased in increments of 0.1 pH unit by the addition of potassium hydroxide solution (0.1 M) from the autoburette. The pH readings were judged stable if they varied by less than 0.01 pH unit after a pre-set incubation period. […] Titration data were analysed with the HypSpec2014 program[48],[49] […] The fitting spectra range for iron complexes was 400–700 nm while that for gallium complexes was 250–350 nm. pH values higher than 11.3 (outside the pH range in which electrode measurements are considered accurate) were neglected and re-calculated from the added KOH quantity (using “no pH” mode within the HypSpec2014 program). […] Metal affinities of compounds in this study were determined in competition with the metal hydrolysis species in a solution at a high pH (titrated up to pH 12.5). […]

[3] = Spectrophotometric determination of conditional formation constants, Fe^3+ complexes; format: binding
Description: as §1, §2, §3

[4] = cited from earlier work
[5] = cited from earlier work; remark: listed apart in the source
[6] = tested on: mouse; assay: In vivo ^68Ga scavenging: acetate-buffered ^68Ga injected, then chelator; PET/CT and urine HPLC; conditions: female BALB/c mouse, THPMe at 45 minutes
Description: The ability of THP^H to scavenge gallium in vivo was also investigated. […] This scavenging ability, shared with THP^Me (ESI, Fig. S8 ^†), reflects the rapid complexation kinetics and the extraordinary ability to transchelate gallium (which is known to bind rapidly and almost completely to transferrin when intravenously injected[44]) rapidly in the biological milieu.
All in vivo experiments were carried out in accordance with British Home Office regulations governing animal experimentation and complied with guidelines on responsibility in the use of animals in bioscience research of the U.K. Research Councils and Medical Research Charities, under U.K. Home Office project and personal licences. […] Respiration rate and bed temperature were monitored throughout. […] All reconstructed datasets were analysed using VivoQuant 1.21 software (inviCRO), which enables the co-registration of PET and CT images and the delineation of regions of interest (ROIs) for quantification of activity in specific organs. […] Urine was collected and analysed by reversed-phase HPLC (method 3).
An E&Z generator was eluted with 5 mL of pure HCl 0.1 M (Fluka analytical) in five 1 mL fractions and their activity measured by a Capintec radionuclide dose calibrator. […]
Quantitative radiolabelling was obtained for all examined concentrations. […]

[7] = 0.1 M KCl electrolyte solution, intrinsic pKa for THP ligands (carbonyl group of HP unit), 25 °C, 0.1 M KCl, read-out: pKa1
[8] = M3+ + 2 L− ⇄ [ML2]+, repeated as control
[9] = M3+ + 3 L− ⇄ [ML3], repeated as control
[10] = M3+ + L− ⇄ [ML]2+, repeated as control
[11] = –log[M^3+] at [M]total = 1 μM, [L]total = 10 μM, pH = 7.4

Compound: Cc1c(O)c(=O)ccn1C [Deferiprone]
pKa [1, 7]: 3.5 | pKa ([1]; intrinsic pKa for THP ligands (hydroxyl group), 25 °C, 0.1 M KCl, read-out: pKa2): 9.8 | Log β [GaL]2+ [2, 8]: 27.0 | Log β [GaL3] [2, 9]: 37.4 | Log β [GaL]2+ [2, 10]: 14.4 | pGa [2, 11]: 20.7 | Log β [FeL]2+ [3, 8]: 27.5 | Log β [FeL3] [3, 9]: 37.5 | Log β [FeL]2+ [3, 10]: 15.0 | pFe [3, 11]: 20.8

Compound: O=C(O)CN(CCN(CC(=O)O)Cc1ccccc1O)Cc1ccccc1O [HBED, N,N-bis(2-hydroxybenzyl)ethylenediamine-N,N-diacetic acid]
log KGa [4]: 37.73 | log KFe [5]: 36.74

pKa [1, 7]: 3.2 | pKa ([1]; 0.1 M KCl electrolyte solution, intrinsic pKa for THP ligands (hydroxyl group), 25 °C, 0.1 M KCl, read-out: pKa2): 9.4 | pKa ([1]; 0.1 M KCl electrolyte solution, pH 10, N^1–H deprotonation, estimated from spectral change of [Fe(THP^H)] in pH 10–12.5, read-out: pKa3): ~13
Compound: CC(=O)NC(CCC(=O)NCc1[nH]c(C)cc(=O)c1O)(CCC(=O)NCc1[nH]c(C)cc(=O)c1O)CCC(=O)NCc1[nH]c(C)cc(=O)c1O [THP^H]

In vivo ^68Ga binding and blood clearance after injection of the chelator [6]: able to bind 68Ga in vivo
Compound: CC(=O)NC(CCC(=O)NCc1c(O)c(=O)cc(C)n1C)(CCC(=O)NCc1c(O)c(=O)cc(C)n1C)CCC(=O)NCc1c(O)c(=O)cc(C)n1C [THP^Me, tris(1,6-dimethyl-3-hydroxypyridin-4-one)]
